US20020111274A1, “1-alkyl-3-[1-(substituted phenyl) benzotriazol-6-yl] uracils” (BASF Aktiengesellschaft, priority 2000, published 2002)

Assays:
[1] = test system: GALAP Galium; assay: Postemergence herbicidal evaluation, GALAP; assay type: in vivo, Galium aparine; parameters: scale not given here; conditions: postemergence spray, rated about two-three weeks after treatment
Procedure, shortened: (§1)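 For this test, compound in an 80/20 acetone/water vehicle with 1.0% seed oil was sprayed over two-week-old seedlings at about 0.006 to 0.400 kg per hectare. Injury was assessed visually two to three weeks on.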

[2] = test system: ORYSAT Rice, Tebonnet; assay: Preemergence herbicidal evaluation, ORYSAT; assay type: in vivo, Oryza sativa, (L.); parameters: scale not given here; conditions: preemergence
Procedure, shortened: (§2)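 Seeds mixed with potting soil in cups, then sprayed preemergence with aqueous acetone test solution at about 0.013 to 0.800 kg per hectare equivalent. Cups kept under standard greenhouse care; plants rated on a visual scale four to five weeks after treatment.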

[3] = test system: ZEAMX Corn, Field; assay: Postemergence herbicidal evaluation, ZEAMX; assay type: in vivo, Zea mays, L. (Sammel-Bezeichnung); parameters: scale not given here; conditions: postemergence spray, rated about two-three weeks after treatment
Procedure, shortened: as §1

[4] = test system: GLXMAW Soybean, Williams; assay: Preemergence herbicidal evaluation, GLXMAW; assay type: in vivo, Glycine max, (L.) Merr. cv Williams; parameters: scale not given here; conditions: preemergence
Procedure, shortened: as §2

[5] = test system: ECHOG Barnyardgrass; assay: Preemergence herbicidal evaluation, ECHOG; assay type: in vivo, Echinochloa crus-galli, (L.) Beau; parameters: scale not given here; conditions: preemergence
Procedure, shortened: as §2

[6] = test system: TRZAWR Wheat, Winter, cv Riband; assay: Preemergence herbicidal evaluation, TRZAWR; assay type: in vivo, Triticum aestivum; parameters: scale not given here; conditions: preemergence
Procedure, shortened: as §2

[7] = test system: SETVI Foxtail, Green; assay: Preemergence herbicidal evaluation, SETVI; assay type: in vivo, Setaria viridis, (L.) Beau; parameters: scale not given here; conditions: preemergence
Procedure, shortened: as §2

[8] = test system: ORYSAT Rice, Tebonnet; assay: Postemergence herbicidal evaluation, ORYSAT; assay type: in vivo, Oryza sativa, (L.); parameters: scale not given here; conditions: postemergence spray, rated about two-three weeks after treatment
Procedure, shortened: as §1

[9] = test system: ABUTH Velvetleaf; assay: Preemergence herbicidal evaluation, ABUTH; assay type: in vivo, Abutilon theophrasti, Medic.; parameters: scale not given here; conditions: preemergence
Procedure, shortened: as §2

[10] = test system: AMBEL Ragweed, Common; assay: Preemergence herbicidal evaluation, AMBEL; assay type: in vivo, Ambrosia artemisifolia, L.; parameters: scale not given here; conditions: preemergence
Procedure, shortened: as §2

[11] = test system: AMBEL Ragweed, Common; assay: Postemergence herbicidal evaluation, AMBEL; assay type: in vivo, Ambrosia artemisifolia, L.; parameters: scale not given here; conditions: postemergence spray, rated about two-three weeks after treatment
Procedure, shortened: as §1

[12] = test system: CHEAL Lambsquarters, Common; assay: Postemergence herbicidal evaluation, CHEAL; assay type: in vivo, Chenopodium album, L.; parameters: scale not given here; conditions: postemergence spray, rated about two-three weeks after treatment
Procedure, shortened: as §1

[13] = test system: CASOB Sicklepod; assay: Preemergence herbicidal evaluation, CASOB; assay type: in vivo, Cassia obtusifolia, L.; parameters: scale not given here; conditions: preemergence
Procedure, shortened: as §2

[14] = test system: IPOHE Morningglory, Ivyleaf; assay: Postemergence herbicidal evaluation, IPOHE; assay type: in vivo, Ipomoea hederacea, (L.) Jacq.; parameters: scale not given here; conditions: postemergence spray, rated about two-three weeks after treatment
Procedure, shortened: as §1

[15] = test system: SETVI Foxtail, Green; assay: Postemergence herbicidal evaluation, SETVI; assay type: in vivo, Setaria viridis, (L.) Beau; parameters: scale not given here; conditions: postemergence spray, rated about two-three weeks after treatment
Procedure, shortened: as §1

[16] = test system: ABUTH Velvetleaf; assay: Postemergence herbicidal evaluation, ABUTH; assay type: in vivo, Abutilon theophrasti, Medic.; parameters: scale not given here; conditions: postemergence spray, rated about two-three weeks after treatment
Procedure, shortened: as §1

[17] = test system: TRZAWR Wheat, Winter, cv Riband; assay: Postemergence herbicidal evaluation, TRZAWR; assay type: in vivo, Triticum aestivum; parameters: scale not given here; conditions: postemergence spray, rated about two-three weeks after treatment
Procedure, shortened: as §1

[18] = test system: IPOHE Morningglory, Ivyleaf; assay: Preemergence herbicidal evaluation, IPOHE; assay type: in vivo, Ipomoea hederacea, (L.) Jacq.; parameters: scale not given here; conditions: preemergence
Procedure, shortened: as §2

[19] = test system: ECHOG Barnyardgrass; assay: Postemergence herbicidal evaluation, ECHOG; assay type: in vivo, Echinochloa crus-galli, (L.) Beau; parameters: scale not given here; conditions: postemergence spray, rated about two-three weeks after treatment
Procedure, shortened: as §1

[20] = test system: GLXMAW Soybean, Williams; assay: Postemergence herbicidal evaluation, GLXMAW; assay type: in vivo, Glycine max, (L.) Merr. cv Williams; parameters: scale not given here; conditions: postemergence spray, rated about two-three weeks after treatment
Procedure, shortened: as §1

[21] = test system: CHEAL Lambsquarters, Common; assay: Preemergence herbicidal evaluation, CHEAL; assay type: in vivo, Chenopodium album, L.; parameters: scale not given here; conditions: preemergence
Procedure, shortened: as §2

[22] = test system: GALAP Galium; assay: Preemergence herbicidal evaluation, GALAP; assay type: in vivo, Galium aparine; parameters: scale not given here; conditions: preemergence
Procedure, shortened: as §2

[23] = test system: CASOB Sicklepod; assay: Postemergence herbicidal evaluation, CASOB; assay type: in vivo, Cassia obtusifolia, L.; parameters: scale not given here; conditions: postemergence spray, rated about two-three weeks after treatment
Procedure, shortened: as §1

[24] = test system: ZEAMX Corn, Field; assay: Preemergence herbicidal evaluation, ZEAMX; assay type: in vivo, Zea mays, L. (Sammel-Bezeichnung); parameters: scale not given here; conditions: preemergence
Procedure, shortened: as §2

## COc1ccc(C)cc1-n1nnc2cc(F)c(-n3c(=O)cc(C(F)(F)F)n(C)c3=O)cc21 [Example 18, 3-[5-fluoro-1-(2-methoxy-5-methylphenyl)-1H-1,2,3-benzotriazol-6-yl]-1-methyl-6-(trifluoromethyl)-2,4(1H,3H)-pyrimidinedione]
[1]; 0.008 kg/ha
  Postemergence herbicidal rating GALAP: 1.0
[1]; 0.016 kg/ha
  Postemergence herbicidal rating GALAP: 3.0
[1]; 0.032 kg/ha
  Postemergence herbicidal rating GALAP: 5.0
[1]; 0.062 kg/ha
  Postemergence herbicidal rating GALAP: 5.0
[2]; rate 0.016 kg/ha
  ORYSAT herbicidal rating: 3.0
[2]; rate 0.032 kg/ha
  ORYSAT herbicidal rating: 6.0
[2]; rate 0.062 kg/ha
  ORYSAT herbicidal rating: 6.0
[2]; rate 0.125 kg/ha
  ORYSAT herbicidal rating: 6.0
[3]; 0.008 kg/ha
  Postemergence herbicidal rating ZEAMX: 4.5
[3]; 0.016 kg/ha
  Postemergence herbicidal rating ZEAMX: 5.5
[3]; 0.032 kg/ha
  Postemergence herbicidal rating ZEAMX: 6.0
[3]; 0.062 kg/ha
  Postemergence herbicidal rating ZEAMX: 6.0
[4]; rate 0.016 kg/ha
  GLXMAW herbicidal rating: 3.0
[4]; rate 0.032 kg/ha
  GLXMAW herbicidal rating: 4.5
[4]; rate 0.062 kg/ha
  GLXMAW herbicidal rating: 7.5
[4]; rate 0.125 kg/ha
  GLXMAW herbicidal rating: 9.0
[5]; rate 0.016 kg/ha
  ECHCG herbicidal rating: 6.0
[5]; rate 0.032 kg/ha
  ECHCG herbicidal rating: 8.0
[5]; rate 0.062 kg/ha
  ECHCG herbicidal rating: 9.0
[5]; rate 0.125 kg/ha
  ECHCG herbicidal rating: 9.0
[6]; rate 0.016 kg/ha
  TRZAWR herbicidal rating: 2.0
[6]; rate 0.032 kg/ha
  TRZAWR herbicidal rating: 3.0
[6]; rate 0.062 kg/ha
  TRZAWR herbicidal rating: 6.0
[6]; rate 0.125 kg/ha
  TRZAWR herbicidal rating: 7.0
[7]; rate 0.016 kg/ha
  SETVI herbicidal rating: 9.0
[7]; rate 0.032 kg/ha
  SETVI herbicidal rating: 9.0
[7]; rate 0.062 kg/ha
  SETVI herbicidal rating: 9.0
[7]; rate 0.125 kg/ha
  SETVI herbicidal rating: 9.0
other
  melting point: 175 to 181 °C
[8]; 0.008 kg/ha
  Postemergence herbicidal rating ORYSAT: 3.5
[8]; 0.016 kg/ha
  Postemergence herbicidal rating ORYSAT: 4.0
[8]; 0.032 kg/ha
  Postemergence herbicidal rating ORYSAT: 5.5
[8]; 0.062 kg/ha
  Postemergence herbicidal rating ORYSAT: 5.5
[9]; rate 0.016 kg/ha
  ABUTH herbicidal rating: 6.0
[9]; rate 0.032 kg/ha
  ABUTH herbicidal rating: 9.0
[9]; rate 0.062 kg/ha
  ABUTH herbicidal rating: 9.0
[9]; rate 0.125 kg/ha
  ABUTH herbicidal rating: 9.0
[10]; rate 0.016 kg/ha
  AMBEL herbicidal rating: 4.0
[10]; rate 0.032 kg/ha
  AMBEL herbicidal rating: 6.0
[10]; rate 0.062 kg/ha
  AMBEL herbicidal rating: 9.0
[10]; rate 0.125 kg/ha
  AMBEL herbicidal rating: 8.0
[11]; 0.008 kg/ha
  Postemergence herbicidal rating AMBEL: 1.0
[11]; 0.016 kg/ha
  Postemergence herbicidal rating AMBEL: 6.0
[11]; 0.032 kg/ha
  Postemergence herbicidal rating AMBEL: 6.0
[11]; 0.062 kg/ha
  Postemergence herbicidal rating AMBEL: 9.0
[12]; 0.008 kg/ha
  Postemergence herbicidal rating CHEAL: 1.0
[12]; 0.016 kg/ha
  Postemergence herbicidal rating CHEAL: 7.0
[12]; 0.032 kg/ha
  Postemergence herbicidal rating CHEAL: 9.0
[12]; 0.062 kg/ha
  Postemergence herbicidal rating CHEAL: 9.0
[13]; rate 0.016 kg/ha
  CASOB herbicidal rating: 2.5
[13]; rate 0.032 kg/ha
  CASOB herbicidal rating: 0.0
[13]; rate 0.062 kg/ha
  CASOB herbicidal rating: 0.5
[13]; rate 0.125 kg/ha
  CASOB herbicidal rating: 5.0
[14]; 0.008 kg/ha
  Postemergence herbicidal rating IPOHE: 9.0
[14]; 0.016 kg/ha
  Postemergence herbicidal rating IPOHE: 9.0
[14]; 0.032 kg/ha
  Postemergence herbicidal rating IPOHE: 9.0
[14]; 0.062 kg/ha
  Postemergence herbicidal rating IPOHE: 9.0
[15]; 0.008 kg/ha
  Postemergence herbicidal rating SETVI: 0.0
[15]; 0.016 kg/ha
  Postemergence herbicidal rating SETVI: 5.0
[15]; 0.032 kg/ha
  Postemergence herbicidal rating SETVI: 9.0
[15]; 0.062 kg/ha
  Postemergence herbicidal rating SETVI: 9.0
[16]; 0.008 kg/ha
  Postemergence herbicidal rating ABUTH: 9.0
[16]; 0.016 kg/ha
  Postemergence herbicidal rating ABUTH: 9.0
[16]; 0.032 kg/ha
  Postemergence herbicidal rating ABUTH: 9.0
[16]; 0.062 kg/ha
  Postemergence herbicidal rating ABUTH: 9.0
[17]; 0.008 kg/ha
  Postemergence herbicidal rating TRZAWR: 3.5
[17]; 0.016 kg/ha
  Postemergence herbicidal rating TRZAWR: 4.5
[17]; 0.032 kg/ha
  Postemergence herbicidal rating TRZAWR: 5.5
[17]; 0.062 kg/ha
  Postemergence herbicidal rating TRZAWR: 4.5
[18]; rate 0.016 kg/ha
  IPOHE herbicidal rating: 7.5
[18]; rate 0.032 kg/ha
  IPOHE herbicidal rating: 9.0
[18]; rate 0.062 kg/ha
  IPOHE herbicidal rating: 8.0
[18]; rate 0.125 kg/ha
  IPOHE herbicidal rating: 9.0
[19]; 0.008 kg/ha
  Postemergence herbicidal rating ECHCG: 0.0
[19]; 0.016 kg/ha
  Postemergence herbicidal rating ECHCG: 2.0
[19]; 0.032 kg/ha
  Postemergence herbicidal rating ECHCG: 2.0
[19]; 0.062 kg/ha
  Postemergence herbicidal rating ECHCG: 4.0
[20]; 0.008 kg/ha
  Postemergence herbicidal rating GLXMAW: 4.5
[20]; 0.016 kg/ha
  Postemergence herbicidal rating GLXMAW: 4.5
[20]; 0.032 kg/ha
  Postemergence herbicidal rating GLXMAW: 6.5
[20]; 0.062 kg/ha
  Postemergence herbicidal rating GLXMAW: 6.0
[21]; rate 0.016 kg/ha
  CHEAL herbicidal rating: 9.0
[21]; rate 0.032 kg/ha
  CHEAL herbicidal rating: 9.0
[21]; rate 0.062 kg/ha
  CHEAL herbicidal rating: 9.0
[21]; rate 0.125 kg/ha
  CHEAL herbicidal rating: 9.0
[22]; rate 0.032 kg/ha
  GALAP herbicidal rating: 1.0
[22]; rate 0.062 kg/ha
  GALAP herbicidal rating: 5.0
[22]; rate 0.125 kg/ha
  GALAP herbicidal rating: 9.0
[23]; 0.008 kg/ha
  Postemergence herbicidal rating CASOB: 0.0
[23]; 0.016 kg/ha
  Postemergence herbicidal rating CASOB: 7.0
[23]; 0.032 kg/ha
  Postemergence herbicidal rating CASOB: 6.0
[23]; 0.062 kg/ha
  Postemergence herbicidal rating CASOB: 7.0
[24]; rate 0.016 kg/ha
  ZEAMX herbicidal rating: 5.0
[24]; rate 0.032 kg/ha
  ZEAMX herbicidal rating: 5.0
[24]; rate 0.062 kg/ha
  ZEAMX herbicidal rating: 7.0
[24]; rate 0.125 kg/ha
  ZEAMX herbicidal rating: 8.5
